Source: PMC8915600, “Optimization of experimental conditions for skin-PAMPA measurements” (ADMET & DMPK, 2020)
Like-named read-outs stand apart in the source and are kept apart here. Marks after values point to notes of the source that are not given here. Blank lines part the entries; values can stand above or below the compound they belong to.

Tests used:
[1] = logarithm of human skin permeation coefficient, neutral form; corrected for ionization in water and for temperature at 37 °C; cited from earlier work
[2] = skin-PAMPA permeability assay (gradient-pH, UPLC-DAD); details: for Papp at 4 h, 50 μM / Papp at 30 min, 50 μM / Papp at 24 h, 50 μM: PAMPA
[3] = PAMPA
[4] = cited from earlier work
[5] = parameters: method as in earlier work; details: octanol-water partition coefficient; cited from earlier work
[6] = skin-PAMPA membrane stability after pre-treatment at basic pH; details: membrane soaked at pH 7, 8, 9, 10 for 30 min or 4 h; then assay 4 h with stirring, donor pH 5, acceptor pH 7.4; versus untreated membrane
Protocol: Then, a standard permeation assay was carried out with an incubation time of 4 h and stirring at pH 5 in the donor compartment and pH 7.4 in the acceptor compartment. Simultaneously, permeation assays were also performed without the previous soaking treatment at basic pH.

[7] = pH 7.4, log Pe, optimized assay conditions (4 h incubation, stirring), measured at the pH corresponding to the neutral form, acceptor pH 7.4
[8] = mole fraction, with stirring, 30 min incubation, neutral form
[9] = mole fraction, with stirring, 4 h incubation, neutral form
[10] = mole fraction, with stirring, 24 h incubation, neutral form
[11] = mole fraction, without stirring, 30 min incubation, neutral form
[12] = mole fraction, without stirring, 4 h incubation, neutral form
[13] = mole fraction, without stirring, 24 h incubation, neutral form
[14] = log Pe, with stirring, 4 h incubation, neutral form (donor pH 3.0, aminopyrine pH 7.0), acceptor pH 7.4, 32 °C
[15] = log Pe, without stirring, 30 min incubation, neutral form (donor pH 3.0, aminopyrine pH 7.0), acceptor pH 7.4, 32 °C
[16] = log Pe, without stirring, 4 h incubation, neutral form (donor pH 3.0, aminopyrine pH 7.0), acceptor pH 7.4, 32 °C
[17] = optimized assay conditions (4 h incubation, stirring), measured at the pH corresponding to the neutral form, acceptor pH 7.4
[18] = with stirring, 30 min incubation, neutral form (donor pH 3.0, aminopyrine pH 7.0), acceptor pH 7.4, 32 °C
[19] = log Pe, with stirring, 24 h incubation, neutral form (donor pH 3.0, aminopyrine pH 7.0), acceptor pH 7.4, 32 °C
[20] = log Pe, without stirring, 24 h incubation, neutral form (donor pH 3.0, aminopyrine pH 7.0), acceptor pH 7.4, 32 °C

- Papp at 4 h, 50 μM [2, 7]: 4.07 ×10⁻⁶ cm/s
Compound: Oc1ccccc1O [Catechol]
- log Kp [1]: -5.87 cm/s

- Papp at 4 h, 50 μM [2, 7]: 3.55 ×10⁻⁶ cm/s
Compound: C[C@]12CCC(=O)C=C1CC[C@@H]1[C@@H]2CC[C@@]2(C)[C@H]1CC[C@]2(O)C(=O)CO [Cortexolone]
- log Kp [1]: -7.20 cm/s

- Papp at 4 h, 50 μM [2, 7]: 162 ×10⁻⁶ cm/s
Compound: O=C(O)Cc1ccccc1Nc1c(Cl)cccc1Cl [Diclofenac]
- log Kp [1]: -5.30 cm/s

Compound: C[C@H]1O[C@@H](O[C@H]2[C@@H](O)C[C@H](O[C@H]3[C@@H](O)C[C@H](O[C@H]4CC[C@@]5(C)[C@H](CC[C@@H]6[C@@H]5CC[C@]5(C)[C@@H](C7=CC(=O)OC7)CC[C@]65O)C4)O[C@@H]3C)O[C@@H]2C)C[C@H](O)[C@@H]1O [Digitoxin]
- log Pe [3]: -6.34(±0.13) cm/s
- log Kp [1]: -8.15 cm/s
- RM (membrane retention) [2, 8]: 0.00
- RM (membrane retention) [2, 9]: 0.22(±0.04)
- RM (membrane retention) [2, 10]: 0.29(±0.05)
- RM (membrane retention) [2, 11]: 0.00
- RM (membrane retention) [2, 12]: 0.09(±0.03)
- RM (membrane retention) [2, 13]: 0.25(±0.02)

Compound: C[C@]12CC[C@@H]3c4ccc(O)cc4CC[C@H]3[C@@H]1CC[C@@H]2O [Estradiol]
- log Kp [1]: -5.61 cm/s

- Papp at 4 h, 50 μM [2, 7]: 4.17 ×10⁻⁶ cm/s
Compound: CC(=O)OCC(=O)[C@@]12OC(C)(C)O[C@@H]1C[C@H]1[C@@H]3C[C@H](F)C4=CC(=O)C=C[C@]4(C)[C@@]3(F)[C@@H](O)C[C@@]12C [Fluocinonide]

- Papp at 4 h, 50 μM [2, 14]: 204 ×10⁻⁶ cm/s
- Papp at 30 min, 50 μM [2, 15]: 288 ×10⁻⁶ cm/s
- Papp at 4 h, 50 μM [2, 16]: 141 ×10⁻⁶ cm/s
- RM (membrane retention) [2, 8]: 0.18(±0.03)
- RM (membrane retention) [2, 9]: 0.00
- RM (membrane retention) [2, 10]: 0.00
- RM (membrane retention) [2, 11]: 0.13(±0.02)
- RM (membrane retention) [2, 12]: 0.00
- RM (membrane retention) [2, 13]: 0.00
- log Pe [2, 17]: -3.69±0.01 cm/s
- log Pe [2, 18]: -2.98(±0.13) cm/s
Compound: CC(C(=O)O)c1ccc(-c2ccccc2)c(F)c1 (centres unmarked) [Flurbiprofen]
- pKa [4]: 4.19 ^c
- log Po/w [5]: 4.16
- log Kp [1]: -4.72 cm/s

- change of skin-PAMPA log Pe after membrane treatment at basic pH [6]: slight increase at pH 9 and 10
- Papp at 4 h, 50 μM [2, 14]: 5.62 ×10⁻⁶ cm/s
- Papp at 24 h, 50 μM [2, 19]: 7.59 ×10⁻⁶ cm/s
- Papp at 30 min, 50 μM [2, 15]: 2.24 ×10⁻⁶ cm/s
- Papp at 4 h, 50 μM [2, 16]: 4.68 ×10⁻⁶ cm/s
- Papp at 24 h, 50 μM [2, 20]: 6.31 ×10⁻⁶ cm/s
- Papp at 4 h, 50 μM [2, 7]: 5.25 ×10⁻⁶ cm/s
- RM (membrane retention) [2, 8]: 0.06(±0.01)
- RM (membrane retention) [2, 9]: 0.19(±0.01)
- RM (membrane retention) [2, 10]: 0.24(±0.02)
- RM (membrane retention) [2, 11]: 0.03(±0.02)
- RM (membrane retention) [2, 12]: 0.16(±0.01)
- RM (membrane retention) [2, 13]: 0.20(±0.02)
- log Pe [2, 18]: -5.61(±0.01) cm/s
Compound: COC1=CC(=O)C[C@@H](C)[C@]12Oc1c(Cl)c(OC)cc(OC)c1C2=O [Griseofulvin]
- log Po/w [5]: 2.18
- log Kp [1]: -6.44 cm/s

- Papp at 4 h, 50 μM [2, 7]: 1.35 ×10⁻⁶ cm/s
Compound: Oc1ccc(O)cc1 [Hydroquinone]
- log Kp [1]: -6.31 cm/s

Compound: CC(=O)[C@@]1(O)CC[C@H]2[C@@H]3CCC4=CC(=O)CC[C@]4(C)[C@H]3CC[C@@]21C [Hydroxyprogesterone]
- log Kp [1]: -6.30 cm/s
- log Pe [2, 17]: -4.70±0.05 cm/s

- Papp at 4 h, 50 μM [2, 14]: 245 ×10⁻⁶ cm/s
- Papp at 30 min, 50 μM [2, 15]: 257 ×10⁻⁶ cm/s
- Papp at 4 h, 50 μM [2, 16]: 224 ×10⁻⁶ cm/s
- RM (membrane retention) [2, 8]: 0.22(±0.03)
- RM (membrane retention) [2, 9]: 0.00
- RM (membrane retention) [2, 10]: 0.00
- RM (membrane retention) [2, 11]: 0.19(±0.07)
- RM (membrane retention) [2, 12]: 0.09(±0.03)
- RM (membrane retention) [2, 13]: 0.00
- log Pe [2, 17]: -3.61±0.06 cm/s
- log Pe [2, 18]: -2.71(±0.04) cm/s
Compound: CC(C)Cc1ccc(C(C)C(=O)O)cc1 (centres unmarked) [Ibuprofen]
- log Kp [1]: -4.58 cm/s

- change of skin-PAMPA log Pe after membrane treatment at basic pH [6]: remain constant
- Papp at 4 h, 50 μM [2, 7]: 39.8 ×10⁻⁶ cm/s
Compound: COc1ccc2c(c1)c(CC(=O)O)c(C)n2C(=O)c1ccc(Cl)cc1 [Indomethacine]
- log Kp [1]: -5.39 cm/s

- Papp at 4 h, 50 μM [2, 7]: 63.1 ×10⁻⁶ cm/s
Compound: c1ccc2cnccc2c1 [Isoquinoline]
- log Kp [1]: -5.11 cm/s

Compound: CC(C(=O)O)c1cccc(C(=O)c2ccccc2)c1 (centres unmarked) [Ketoprofen]
- log Kp [1]: -5.22 cm/s

Compound: COC(=O)c1ccc(O)cc1 [Methyl 4-hydroxybenzoate]
- log Kp [1]: -5.12 cm/s

- Papp at 4 h, 50 μM [2, 7]: 45.7 ×10⁻⁶ cm/s
Compound: COc1ccccc1 [Methyl phenyl ether (Anisole), Methyl phenyl ether]
- log Kp [1]: -4.68 cm/s

- Papp at 4 h, 50 μM [2, 7]: 21.4 ×10⁻⁶ cm/s
Compound: CN1C(C(=O)Nc2ccccn2)=C(O)c2ccccc2S1(=O)=O [Piroxicam]
- log Kp [1]: -6.02 cm/s

- Papp at 4 h, 50 μM [2, 14]: 77.6 ×10⁻⁶ cm/s
- Papp at 24 h, 50 μM [2, 19]: 25.7 ×10⁻⁶ cm/s
- Papp at 30 min, 50 μM [2, 15]: 15.5 ×10⁻⁶ cm/s
- Papp at 4 h, 50 μM [2, 16]: 13.2 ×10⁻⁶ cm/s
- Papp at 24 h, 50 μM [2, 20]: 20.4 ×10⁻⁶ cm/s
- Papp at 4 h, 50 μM [2, 7]: 74.1 ×10⁻⁶ cm/s
- RM (membrane retention) [2, 8]: 0.50(±0.04)
- RM (membrane retention) [2, 9]: 0.74(±0.01)
- RM (membrane retention) [2, 10]: 0.88(±0.01)
- RM (membrane retention) [2, 11]: 0.33(±0.01)
- RM (membrane retention) [2, 12]: 0.62(±0.04)
- RM (membrane retention) [2, 13]: 0.83(±0.02)
- RM (membrane retention) ([2]; range over all incubation times (30 min, 4 h, 24 h), with and without stirring): 0.33-0.88
- log Pe [2, 18]: -3.25(±0.25) cm/s
- log Pe ([2]; without stirring, 4 h incubation, neutral form (donor pH 3.0, aminopyrine pH 7.0), acceptor pH 7.4, 32 °C): -4.88 cm/s
Compound: CC(=O)[C@H]1CC[C@H]2[C@@H]3CCC4=CC(=O)CC[C@]4(C)[C@H]3CC[C@]12C [Progesterone]
- log Kp [1]: -4.90 cm/s

Compound: Nc1ccccc1N [o-Phenylenediamine]
- log Kp [1]: -6.70 cm/s
- log Pe [2, 17]: -5.42±0.02 cm/s

Compound: CC(=O)CC(c1ccccc1)c1c(O)c2ccccc2oc1=O (centres unmarked) [warfarin]
- change of skin-PAMPA log Pe after membrane treatment at basic pH [6]: slight increase at pH 9 and 10
